Test results as given in US20230014907A1, “INHIBITORS OF APOL1 AND METHODS OF USING SAME” (Vertex Pharmaceuticals Incorporated, priority 2020, published 2023).

Target: T1, G1 APOL1 (Homo sapiens, UniProt O14791, I384M/S342G)
T1 construct: expressed in transfected cells
T1 sequence (O14791 28-398 S342G/I384M): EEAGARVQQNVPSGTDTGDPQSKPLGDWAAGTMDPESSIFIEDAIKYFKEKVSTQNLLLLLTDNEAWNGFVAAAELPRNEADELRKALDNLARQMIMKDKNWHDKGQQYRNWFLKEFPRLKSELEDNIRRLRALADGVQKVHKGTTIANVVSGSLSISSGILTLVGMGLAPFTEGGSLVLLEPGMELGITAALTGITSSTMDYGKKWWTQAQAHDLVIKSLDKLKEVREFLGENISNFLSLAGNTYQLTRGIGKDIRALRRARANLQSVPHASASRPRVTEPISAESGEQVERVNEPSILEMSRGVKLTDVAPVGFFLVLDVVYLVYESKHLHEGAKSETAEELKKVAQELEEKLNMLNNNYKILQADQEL
Experiment: Acute APOL1 Thallium Assay with Inducible Stable Clones of HEK 293 Cells
Type: cell-based
Conditions: HEK 293 inducible stable clones, G1 APOL1; read-out: Thallium Assay (IC50)
Procedure, shortened: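 Pore activity was read as the fluorescence increase from Tl+ entering cells loaded with an AM-ester thallium indicator dye. The cells were tetracycline-inducible HEK293 T-Rex expressing G1 APOL1 (clone DC3.25), induced when plated at 26000 per well and incubated at 37° C.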

| IC50 [µM] | SMILES |
| --- | --- |
| > 1 | O=C(NCCc1c(-c2ccc(F)cc2)[nH]c2c(F)cc(F)cc12)NCC(O)C(F)F (stereo not shown) [Compound 267] |
| > 1 | CN1CC(NC(=O)NCCc2c(-c3ccc(F)cc3)[nH]c3c(F)cc(F)cc23)CC1=O (stereo not shown) [Compound 294] |
| > 1 | C[C@H](N)C(=O)NCCc1c(-c2ccc(F)cc2)[nH]c2c(F)cc(F)cc12 [Compound 363] |
| < 0.25 | CC(CO)C(=O)NCCc1c(-c2ccc(F)cc2)[nH]c2c(F)cc(F)cc12 (racemic) [Compound 357] |
| > 1 | NC(=O)CNC(=O)CCc1c(-c2ccc(F)cc2)[nH]c2c(F)cc(Cl)cc12 [Compound 201] |
| > 1 | N#CCC(=O)NCCc1c(-c2ccc(F)cc2)[nH]c2c(F)cc(F)cc12 [Compound 416] |
| > 1 | O=C(O)CNC(=O)NCCc1c(-c2ccc(F)cc2)[nH]c2c(F)cc(F)cc12 [Compound 285] |
| > 1 | CC(O)CCNC(=O)NCCc1c(-c2ccc(F)cc2)[nH]c2c(F)cc(F)cc12 (stereo not shown) [Compound 278] |
| > 1 | C[C@H](NC(=O)NCCc1c(-c2ccc(F)cc2)[nH]c2c(F)cc(F)cc12)C(=O)O [Compound 281] |
| > 1 | Cc1cc(F)c2[nH]c(-c3ccc(F)cc3)c(CCC(=O)N[C@@H](C)CO)c2c1 [Compound 222] |
| > 1 | C[C@@H](CO)N(C)C(=O)NCCc1c(-c2ccc(F)cc2)[nH]c2c(F)cc(F)cc12 [Compound 300] |
| < 0.25 | O=C(NCCc1c(-c2ccc(F)cc2)[nH]c2c(F)cc(F)cc12)N[C@H](CO)C(F)(F)F [Compound 262] |
| > 1 | O=C(CCCc1c(-c2ccc(F)cc2)[nH]c2c(F)cc(F)cc12)N1C[C@@H](O)[C@H](O)C1 [Compound 248] |
| > 1 | O=C(CN1CCCC1=O)NCCc1c(-c2ccc(F)cc2)[nH]c2c(F)cc(F)cc12 [Compound 375] |
| > 1 | O=C(NCCc1c(-c2ccc(F)cc2)[nH]c2c(F)cc(F)cc12)c1ncccn1 [Compound 397] |
| > 1 | CC(C)(C)OC(=O)N[C@H](CO)C(=O)NCCc1c(-c2ccc(F)cc2)[nH]c2c(F)cc(F)cc12 [Compound 305, tert-butyl N-[(1R)-2-[2-[5,7-difluoro-2-(4-fluorophenyl)-1H-indol-3-yl]ethylamino]-1-(hydroxymethyl)-2-oxo-ethyl]carbamate] |
| 0.25 to 1 | O=C(N[C@H]1C[C@H](O)C1)OCCc1c(-c2ccc(F)cc2)[nH]c2c(F)cc(F)cc12 [Compound 464] |
| 0.25 to 1 | C[C@H](O)C(=O)NCCc1c(-c2ccc(F)cc2)[nH]c2c(F)cc(F)cc12 [Compound 362] |
| > 1 | CNC(=O)CC(=O)NCCc1c(-c2ccc(F)cc2)[nH]c2c(F)cc(F)cc12 [Compound 345] |
| > 1 | O=C(NCCc1c(-c2ccc(F)cc2)[nH]c2c(F)cc(F)cc12)N[C@@H]1CC[C@H](O)C1 [Compound 272] |
| 0.25 to 1 | O=C(CCc1c(-c2ccc(F)cc2)[nH]c2ccc(F)cc12)N[C@@H](CO)C(F)F [Compound 3] |
| 0.25 to 1 | CNC(=O)CCCc1c(-c2ccc(F)cc2)[nH]c2c(F)cc(F)cc12 [Compound 239, 4-(5,7-difluoro-2-(4-fluorophenyl)-1H-indol-3-yl)-N-methylbutanamide] |
| > 1 | C=CC(=O)NCCc1c(-c2ccc(F)cc2)[nH]c2c(F)cc(F)cc12 [Compound 417] |

| IC50 [µM] | SMILES |
| --- | --- |
| > 1 | O=C1N[C@H](C(=O)NCCc2c(-c3ccc(F)cc3)[nH]c3c(F)cc(F)cc23)CO1 [Compound 336] |
| > 1 | O=C(NCCc1c(-c2ccc(F)cc2)[nH]c2c(F)cc(F)cc12)C1CNC1=O (stereo not shown) [Compound 350] |
| > 1 | Cc1occc1CNC(=O)NCCc1c(-c2ccc(F)cc2)[nH]c2c(F)cc(F)cc12 [Compound 295] |
| 0.25 to 1 | O=C(NCCc1c(-c2ccc(F)cc2)[nH]c2c(F)cc(F)cc12)C(O)CO (stereo not shown) [Compound 310] |
| > 1 | O=C(CCc1c(-c2ccc(F)cc2)[nH]c2c(F)cc(Cl)cc12)NCCCO [Compound 209] |
| > 1 | COC(=O)/C=C/c1c(-c2ccc(C#N)cc2)[nH]c2c(F)cc(F)cc12 [Compound 521, Methyl (E)-3-[2-(4-cyanophenyl)-5,7-difluoro-1H-indol-3-yl]prop-2-enoate] |
| > 1 | Cc1cc(F)c2[nH]c(-c3ccc(F)cc3)c(CCC(=O)NC(CO)CO)c2c1 [Compound 219] |
| > 1 | Cc1cc(F)c2[nH]c(-c3ccc(F)cc3)c(CCC(=O)NC(CO)(CO)CO)c2c1 [Compound 217] |
| > 1 | O=C(NCCc1c(-c2ccc(F)cc2)[nH]c2c(F)cc(F)cc12)c1cnc(C(F)(F)F)s1 [Compound 367] |
| > 1 | CC(C)(C)OC(=O)N[C@@H](CO)C(=O)NCCc1c(-c2ccc(F)cc2)[nH]c2c(F)cc(F)cc12 [Compound 308] |
| 0.25 to 1 | O=C(NCCc1c(-c2ccc(F)cc2)[nH]c2c(F)cc(F)cc12)C1CC1 [Compound 415] |
| > 1 | CC(C)(O)C(=O)NCCc1c(-c2ccc(F)cc2)[nH]c2c(F)cc(F)cc12 [Compound 355] |
| 0.25 to 1 | NC(=O)C1(C(=O)NCCc2c(-c3ccc(F)cc3)[nH]c3c(F)cc(F)cc23)CC1 [Compound 339] |
| 0.25 to 1 | C[C@H](CO)NC(=O)NCCc1c(-c2ccc(F)cc2)[nH]c2c(F)cc(F)cc12 [Compound 282] |
| > 1 | C[C@@H](CO)NC(=O)CCc1c(-c2ccc(F)cc2)[nH]c2c(F)cc(Cl)cc12 [Compound 203] |
| > 1 | O=C(CCCc1c(-c2ccc(F)cc2)[nH]c2c(F)cc(F)cc12)N[C@H]1CCNC1=O [Compound 249] |
| > 1 | O=C(NCc1ccco1)OCCc1c(-c2ccc(F)cc2)[nH]c2c(F)cc(F)cc12 [Compound 481] |
| 0.25 to 1 | O=C(NC1CC(O)C1)OCCc1c(-c2ccc(F)cc2)[nH]c2c(F)cc(F)cc12 (stereo not shown) [Compound 466] |
| < 0.25 | O=C(NC1(CO)CC1)OCCc1c(-c2ccc(F)cc2)[nH]c2c(F)cc(F)cc12 [Compound 438] |
| > 1 | Cn1cc(CNC(=O)CCCc2c(-c3ccc(F)cc3)[nH]c3c(F)cc(F)cc23)nn1 [Compound 251] |
| 0.25 to 1 | CC1(C(=O)NCCc2c(-c3ccc(F)cc3)[nH]c3c(F)cc(F)cc23)COC1 [Compound 410] |
| > 1 | O=C(CC1CC(=O)NC(=O)C1)NCCc1c(-c2ccc(F)cc2)[nH]c2c(F)cc(F)cc12 [Compound 318] |
| > 1 | Cn1cc(C(=O)NCCc2c(-c3ccc(F)cc3)[nH]c3c(F)cc(F)cc23)cn1 [Compound 391] |

| IC50 [µM] | SMILES |
| --- | --- |
| > 1 | O=C(NCCc1c(-c2ccc(F)cc2)[nH]c2c(F)cc(F)cc12)c1cncnc1 [Compound 400] |
| > 1 | Cc1cc(F)c2[nH]c(-c3ccc(F)cc3)c(CCC(=O)N[C@H](CO)C(N)=O)c2c1 [Compound 220] |
| 0.25 to 1 | O=C(NCCc1c(-c2ccc(F)cc2)[nH]c2c(F)cc(F)cc12)C1(O)COC1 [Compound 342] |
| 0.25 to 1 | CC(C)[C@@H](CO)NC(=O)OCCc1c(-c2ccc(F)cc2)[nH]c2c(F)cc(F)cc12 [Compound 459] |
| > 1 | CO[C@H]1C[C@@H](NC(=O)OCCc2c(-c3ccc(F)cc3)[nH]c3c(F)cc(F)cc23)C1 [Compound 496] |
| > 1 | O=C1CCC(C(=O)NCCc2c(-c3ccc(F)cc3)[nH]c3c(F)cc(F)cc23)CN1 (stereo not shown) [Compound 332] |
| 0.25 to 1 | CC(C)(O)CCNC(=O)OCCc1c(-c2ccc(F)cc2)[nH]c2c(F)cc(F)cc12 [Compound 458] |
| > 1 | O=C(CCc1c(-c2ccc(F)cc2)[nH]c2c(F)cc(Cl)cc12)NC[C@H](O)CO [Compound 204] |
| > 1 | O=C(CCCc1c(-c2ccc(F)cc2)[nH]c2c(F)cc(F)cc12)N[C@H]1C[C@@H](CO)NC1=O [Compound 256] |
| > 1 | O=C(NCCc1c(-c2ccc(F)cc2)[nH]c2c(F)cc(F)cc12)OCC1(C(=O)O)CC1 [Compound 426, 1-[2-[5,7-difluoro-2-(4-fluorophenyl)-1H-indol-3-yl]ethylcarbamoyloxymethyl]cyclopropanecarboxylic acid] |
| > 1 | O=C(NCCc1c(-c2ccc(F)cc2)[nH]c2c(F)cc(F)cc12)[C@H]1CC[C@@H](O)CC1 [Compound 324] |
| 0.25 to 1 | CC(C)(CF)C(=O)NCCc1c(-c2ccc(F)cc2)[nH]c2c(F)cc(F)cc12 [Compound 405] |
| > 1 | O=C(NCCc1c(-c2ccc(F)cc2)[nH]c2c(F)cc(F)cc12)c1nc(C(F)(F)F)cs1 [Compound 368] |
| > 1 | CN(C[C@H](O)CO)C(=O)CCc1c(-c2ccc(F)cc2)[nH]c2c(F)cc(Cl)cc12 [Compound 211] |
| > 1 | CC(CCO)NC(=O)CCc1c(-c2ccc(F)cc2)[nH]c2c(F)cc(F)cc12 (racemic) [Compound 147] |
| > 1 | O=C(NCCc1c(-c2ccc(F)cc2)[nH]c2c(F)cc(F)cc12)NCC1(O)CCC1 [Compound 275] |
| > 1 | O=C(NCC1(O)CCS(=O)(=O)C1)OCCc1c(-c2ccc(F)cc2)[nH]c2c(F)cc(F)cc12 (stereo not shown) [Compound 498] |
| > 1 | Cc1cc(F)c2[nH]c(-c3ccc(F)cc3)c(CCC(=O)NC[C@H](O)CO)c2c1 [Compound 226] |
| 0.25 to 1 | O=C(NC(CO)CF)OCCc1c(-c2ccc(F)cc2)[nH]c2c(F)cc(F)cc12 (stereo not shown) [Compound 471] |
| 0.25 to 1 | Cc1cc(F)c2[nH]c(-c3ccc(F)cc3)c(CCC(=O)N[C@H](C)CO)c2c1 [Compound 213] |
| 0.25 to 1 | O=C(NCCc1c(-c2ccc(F)cc2)[nH]c2c(F)cc(F)cc12)C1(F)CCC1 [Compound 406] |
